Common to all, as to experiment: relative viability (nuclei count vs DMSO), 5 days (fraction); higher = more cells survive
Compound in assay [1]: COc1cc2c(Oc3ccc4[nH]c(C)cc4c3F)ncnc2cc1OCCCN1CCCC1 [Cediranib] + O=C(c1cc(Cc2n[nH]c(=O)c3ccccc23)ccc1F)N1CCN(C(=O)C2CC2)CC1 [Olaparib] (partner 8 µM)
In a few lines:
(§1)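 Relative viability is defined as nuclei in treated wells over nuclei in vehicle wells. Duplicate plates were run and medians reported. Lung cancer cell lines in 1536-well plates were dosed by pin tool one day after seeding, with one drug or with a fixed anchor-drug dose plus five library-drug doses (not always all listed) in √10 steps, and nuclei were counted after 5 days.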

Compound in assay [2]: Nc1ncn([C@H]2C[C@H](O)[C@@H](CO)O2)c(=O)n1 [Decitabine] + Nc1nc2[nH]cc(CCc3ccc(C(=O)N[C@@H](CCC(=O)O)C(=O)O)cc3)c2c(=O)[nH]1 [Pemetrexed] (partner 0.2 µM)
In a few lines: as §1

Compound in assay [3]: O=C(C[C@H]1NCCC[C@@H]1O)Cn1cnc2cc(Br)c(Cl)cc2c1=O (racemic) [Halofuginone] + CC(C)C[C@H](NC(=O)[C@H](Cc1ccccc1)NC(=O)c1cnccn1)B(O)O [Bortezomib] (partner 0.002 µM)
In a few lines:
as §1

Compound in assay [4]: COc1cc2c(Oc3ccc4[nH]c(C)cc4c3F)ncnc2cc1OCCCN1CCCC1 [Cediranib] + Cc1cc(Nc2cc(N3CCN(C)CC3)nc(Sc3ccc(NC(=O)C4CC4)cc3)n2)n[nH]1 [Tozasertib] (partner 0.1 µM)
In a few lines: as §1

Turning to UMC-11, the relative viability in assay [1] (first compound 0.04 µM) was found to be 0.373; in assay [1] (first compound 0.1265 µM), 0.335; in assay [1] (first compound 0.4 µM), 0.371; in assay [1] (first compound 1.265 µM), 0.388; in assay [1] (first compound 4 µM), 0.406; in assay [2] (first compound 0.04 µM) it was 0.691. Moreover, the relative viability in assay [2] (first compound 0.1265 µM) was found to be 0.563; in assay [2] (first compound 0.4 µM), 0.406; in assay [2] (first compound 1.265 µM), 0.358; in assay [2] (first compound 4 µM), 0.351; in assay [3] (first compound 0.001 µM) it was 0.683; in assay [3] (first compound 0.003162 µM) it was 0.775. In addition, the relative viability in assay [3] (first compound 0.01 µM) was 0.684; in assay [3] (first compound 0.03162 µM) it was 0.689; in assay [3] (first compound 0.1 µM), 0.645; in assay [4] (first compound 0.04 µM), 0.213; in assay [4] (first compound 0.4 µM) it was 0.201; in assay [4] (first compound 4 µM) it was 0.2.

The values are drawn from the supplement of paper PMC10307832.
